Series [1] in a line: Toxicity in Sprague-Dawley rat assessed as alterations in QRS complex duration at 19 mg/kg administered as continuous infusion followed by maintenance at 3.25 mg/kg/min for 0 to 20 mins, 2.5 mg/kg/min for 20 to 30 mins and 2 mg/kg/min for 30 to 60 mins by electrocardiogram recording. The conditions noted are these: in vivo, other, 1 h, route par. Type of series: organism-based.

Series [2] concerns the target Sodium channel protein type 9 subunit alpha (Homo sapiens, UniProt Q15858). As to the kind of experiment: Inhibition of Nav1.7 channel (unknown origin) at resting state at -120 mV conditioning pulse by voltage clamp electrophysiological recording.
A short description of series [3]: Drug metabolism in mouse liver microsomes assessed as propofol release by measuring half life at 1 mg/ml measured upto 360 mins by LC-MS analysis. Type of series: ADME, Microsome. Particulars: 6 h.
The subject of series [4] is Mus musculus. As to the kind of experiment: Antiseizure activity in iv dosed ICR mouse model of PTZ-induced acute seizure assessed as mortality rate preadministered for 1 min followed by PTZ treatment and measured for 7 days (reference value: 83.3%). The series is classed as functional. Particulars: time 7 day.
Series [5] in a line: Toxicity in Sprague-Dawley rat assessed as histopathological changes in kidney at 19 mg/kg administered as continuous infusion followed by maintenance at 3.25 mg/kg/min for 0 to 20 mins, 2.5 mg/kg/min for 20 to 30 mins and 2 mg/kg/min for 30 to 60 mins and measured after 14 days by H and E staining based analysis. Particulars: in vivo, other, 336 h, route par, time 14 day. The series is classed as organism-based.

Series [6] is described as follows: Toxicity in ICR mouse assessed as histopathological changes in heart at 1.5 times ED50, iv administered as single dose and measured after 14 days by H and E staining based analysis. The series is classed as organism-based. Particulars: in vivo, 336 h, time 14 day.
The nature of series [7]: Toxicity in Sprague-Dawley rat assessed as change in P-R interval at 19 mg/kg administered as continuous infusion followed by maintenance at 3.25 mg/kg/min for 0 to 20 mins, 2.5 mg/kg/min for 20 to 30 mins and 2 mg/kg/min for 30 to 60 mins and measured between 30 to 50 mins by electrocardiogram recording. The series is classed as organism-based. Particulars: in vivo, other, time 30-50 min, route par.

The target of series [8] is Sodium channel protein type 5 subunit alpha (Homo sapiens, UniProt Q14524). In words: Inhibition of Nav1.5 channel (unknown origin) at half inactivation state at -120 mV conditioning pulse by voltage clamp electrophysiological recording. The series is classed as toxicity.
Chain of Sodium channel protein type 5 subunit alpha (Q14524 whole entry): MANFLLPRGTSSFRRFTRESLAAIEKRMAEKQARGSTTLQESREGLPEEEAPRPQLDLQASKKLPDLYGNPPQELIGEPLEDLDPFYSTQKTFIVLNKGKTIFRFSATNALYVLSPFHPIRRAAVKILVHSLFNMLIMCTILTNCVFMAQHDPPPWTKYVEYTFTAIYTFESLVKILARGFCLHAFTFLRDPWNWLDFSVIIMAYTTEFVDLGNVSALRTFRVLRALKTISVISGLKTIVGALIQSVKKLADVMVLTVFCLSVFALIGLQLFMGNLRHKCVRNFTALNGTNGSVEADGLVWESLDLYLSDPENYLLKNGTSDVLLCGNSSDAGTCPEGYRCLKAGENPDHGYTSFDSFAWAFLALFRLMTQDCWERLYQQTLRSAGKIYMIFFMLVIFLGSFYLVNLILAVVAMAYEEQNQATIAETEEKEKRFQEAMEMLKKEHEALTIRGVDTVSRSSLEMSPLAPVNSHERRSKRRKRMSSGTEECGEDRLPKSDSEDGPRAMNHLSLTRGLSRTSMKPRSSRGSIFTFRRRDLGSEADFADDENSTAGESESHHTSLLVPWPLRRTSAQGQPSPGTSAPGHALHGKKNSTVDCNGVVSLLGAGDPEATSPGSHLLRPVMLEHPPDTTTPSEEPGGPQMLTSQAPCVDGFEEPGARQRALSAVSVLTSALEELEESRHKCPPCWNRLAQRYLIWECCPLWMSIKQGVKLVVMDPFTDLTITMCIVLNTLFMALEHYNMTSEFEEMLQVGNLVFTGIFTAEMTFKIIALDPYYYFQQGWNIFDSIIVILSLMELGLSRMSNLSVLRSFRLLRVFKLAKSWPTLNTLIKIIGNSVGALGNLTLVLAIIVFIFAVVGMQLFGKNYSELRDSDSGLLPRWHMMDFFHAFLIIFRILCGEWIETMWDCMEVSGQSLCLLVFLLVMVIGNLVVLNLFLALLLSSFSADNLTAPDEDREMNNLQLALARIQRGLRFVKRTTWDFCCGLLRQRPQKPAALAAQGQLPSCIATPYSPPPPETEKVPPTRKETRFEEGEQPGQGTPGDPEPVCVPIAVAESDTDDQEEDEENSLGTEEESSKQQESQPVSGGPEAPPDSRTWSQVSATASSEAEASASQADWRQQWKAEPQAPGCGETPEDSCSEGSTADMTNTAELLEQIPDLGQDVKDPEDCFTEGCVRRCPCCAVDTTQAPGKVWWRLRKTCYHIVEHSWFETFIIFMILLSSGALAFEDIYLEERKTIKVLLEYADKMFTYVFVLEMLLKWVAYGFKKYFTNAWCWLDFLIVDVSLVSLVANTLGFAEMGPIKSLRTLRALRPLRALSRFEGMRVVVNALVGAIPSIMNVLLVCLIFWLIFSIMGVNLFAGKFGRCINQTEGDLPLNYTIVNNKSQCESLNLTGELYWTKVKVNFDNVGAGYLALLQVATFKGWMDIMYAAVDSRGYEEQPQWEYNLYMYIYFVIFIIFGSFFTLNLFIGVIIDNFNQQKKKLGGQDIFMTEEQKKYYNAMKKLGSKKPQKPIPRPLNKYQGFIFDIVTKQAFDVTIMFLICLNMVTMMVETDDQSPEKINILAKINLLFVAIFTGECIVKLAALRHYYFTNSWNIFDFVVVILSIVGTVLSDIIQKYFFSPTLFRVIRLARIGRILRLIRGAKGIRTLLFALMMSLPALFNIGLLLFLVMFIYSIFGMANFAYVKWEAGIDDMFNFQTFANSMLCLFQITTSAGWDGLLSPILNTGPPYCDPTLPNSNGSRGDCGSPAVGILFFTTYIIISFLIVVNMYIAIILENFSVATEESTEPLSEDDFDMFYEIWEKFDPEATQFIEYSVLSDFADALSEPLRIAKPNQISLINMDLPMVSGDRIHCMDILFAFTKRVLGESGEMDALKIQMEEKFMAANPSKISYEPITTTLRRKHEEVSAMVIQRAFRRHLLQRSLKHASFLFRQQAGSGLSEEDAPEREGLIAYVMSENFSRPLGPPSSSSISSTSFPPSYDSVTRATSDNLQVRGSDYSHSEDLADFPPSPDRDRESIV

Chain of Sodium channel protein type 9 subunit alpha (Q15858 whole entry): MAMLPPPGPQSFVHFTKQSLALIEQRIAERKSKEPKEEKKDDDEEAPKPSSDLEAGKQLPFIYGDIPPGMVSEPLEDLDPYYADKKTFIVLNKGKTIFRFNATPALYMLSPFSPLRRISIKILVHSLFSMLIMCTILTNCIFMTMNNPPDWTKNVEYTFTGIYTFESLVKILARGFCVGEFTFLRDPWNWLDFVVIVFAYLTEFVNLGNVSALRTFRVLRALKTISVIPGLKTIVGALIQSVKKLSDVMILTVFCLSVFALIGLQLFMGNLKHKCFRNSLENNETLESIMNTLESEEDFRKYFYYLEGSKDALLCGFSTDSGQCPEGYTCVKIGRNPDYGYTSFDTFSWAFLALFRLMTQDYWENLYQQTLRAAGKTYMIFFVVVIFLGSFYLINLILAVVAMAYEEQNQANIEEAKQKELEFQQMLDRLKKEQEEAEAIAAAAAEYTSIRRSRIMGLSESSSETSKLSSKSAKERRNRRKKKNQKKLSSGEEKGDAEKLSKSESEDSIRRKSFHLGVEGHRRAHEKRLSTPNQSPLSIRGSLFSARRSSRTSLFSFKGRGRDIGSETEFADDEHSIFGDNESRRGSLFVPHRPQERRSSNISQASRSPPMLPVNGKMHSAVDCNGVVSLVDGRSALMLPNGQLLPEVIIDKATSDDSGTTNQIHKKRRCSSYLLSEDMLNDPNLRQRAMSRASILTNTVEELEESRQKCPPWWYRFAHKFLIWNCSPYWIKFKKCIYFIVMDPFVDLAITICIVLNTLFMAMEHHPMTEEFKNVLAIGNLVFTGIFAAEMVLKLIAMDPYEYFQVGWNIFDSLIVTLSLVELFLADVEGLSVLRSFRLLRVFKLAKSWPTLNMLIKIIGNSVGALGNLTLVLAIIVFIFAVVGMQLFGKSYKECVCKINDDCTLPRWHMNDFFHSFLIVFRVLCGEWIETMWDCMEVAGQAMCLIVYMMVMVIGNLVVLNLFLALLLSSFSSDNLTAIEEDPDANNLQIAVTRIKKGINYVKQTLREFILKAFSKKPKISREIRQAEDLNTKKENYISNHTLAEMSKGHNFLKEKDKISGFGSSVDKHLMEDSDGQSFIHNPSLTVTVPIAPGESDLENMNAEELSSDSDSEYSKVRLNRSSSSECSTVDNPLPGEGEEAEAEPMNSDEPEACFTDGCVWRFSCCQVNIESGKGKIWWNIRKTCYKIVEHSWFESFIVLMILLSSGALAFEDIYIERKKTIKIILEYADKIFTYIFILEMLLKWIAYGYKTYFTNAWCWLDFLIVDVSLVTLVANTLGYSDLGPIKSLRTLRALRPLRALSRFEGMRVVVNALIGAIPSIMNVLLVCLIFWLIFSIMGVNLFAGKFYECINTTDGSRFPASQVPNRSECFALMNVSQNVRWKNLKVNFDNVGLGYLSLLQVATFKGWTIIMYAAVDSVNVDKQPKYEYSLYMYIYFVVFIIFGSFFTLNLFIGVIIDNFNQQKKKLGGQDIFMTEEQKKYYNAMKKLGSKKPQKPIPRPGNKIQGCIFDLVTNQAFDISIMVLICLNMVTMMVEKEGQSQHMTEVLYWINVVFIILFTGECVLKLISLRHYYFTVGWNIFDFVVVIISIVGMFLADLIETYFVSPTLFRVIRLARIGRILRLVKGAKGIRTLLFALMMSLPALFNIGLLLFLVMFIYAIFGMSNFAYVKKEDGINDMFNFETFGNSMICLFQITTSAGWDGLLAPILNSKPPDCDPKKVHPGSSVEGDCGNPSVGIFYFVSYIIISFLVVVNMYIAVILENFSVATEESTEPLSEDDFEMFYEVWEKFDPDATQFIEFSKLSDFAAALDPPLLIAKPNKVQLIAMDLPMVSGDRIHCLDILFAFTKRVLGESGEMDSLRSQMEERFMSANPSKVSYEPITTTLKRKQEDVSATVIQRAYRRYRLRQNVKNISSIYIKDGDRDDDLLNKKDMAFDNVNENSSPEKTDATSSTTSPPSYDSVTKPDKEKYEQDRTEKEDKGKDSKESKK

Regarding `CCN(CC)CCOC(=O)Oc1c(C(C)C)cccc1C(C)C.Cl`, the Activity result is on record as “Non-Toxic” in series [1]; 0% in series [4]; “Non-Toxic” in series [5]; “Non-Toxic” in series [6]; “Toxic” in series [7]. Besides, the IC50 (usually the concentration at which inhibition is half-maximal) in series [2] is greater than 30 µM; in series [8] it was 20.5 µM. Moreover, the t1/2 in series [3] worked out at 45.98 min.
